{
  "source": "paper PMC10108266",
  "about": "“Pharmacokinetic characteristics of golidocitinib, a highly selective JAK1 inhibitor, in healthy adult participants” (Frontiers in Immunology, 2023)",
  "key": {"[1]": {"assay": "JACKPOT2 MAD urinary PK (Day 14)", "assay_type": "in vivo, human", "details": "for CLtotal: CL/F * F (0.7 from PBPK model); for Fe0-t: CLr/CLtotal; for Ae0-t: urine 0-24 hour on Day 14; for CL renal: human, oral", "text": "In the SAD cohorts, serial blood samples were obtained on Day 1 at pre-dose, and at 0.5, 1, 1.5, 2, 3, 4, 6, 10, 14, 24 (Day 2), 48 (Day 3), 72 (Day 4), 120 (Day 6), 168 (Day 8) and 216 (Day 10) hours post-dose for plasma PK analysis. A similar sampling schedule was undertaken for the MAD cohorts on Day 1 and Day 14, with additional trough samples obtained on Days 5, Day 8, and Day 11. In the MAD cohorts, urine samples were collected on Day 14 during the collection intervals of 0-4, 4-10, and 10-24 hours following the last dose for urine PK analysis. Plasma and urine samples were analyzed by Frontage Laboratories Inc. (New Jersey, USA) using a validated LC/MS/MS bioanalytical method to determine golidocitinib concentrations. Cross validation in plasma was successful between Frontage Laboratories Inc. (New Jersey, USA) and Frontage Laboratories Inc. (Shanghai) using clinical samples and spiked quality control samples.\n(§1) The mean (SD) amount of golidocitinib excreted in the urine over the collection period and renal clearance are presented in Table 2B . The average amount of golidocitinib excreted in the urine increased in an approximately dose proportional manner from 25 mg to 100 mg. […] The renal excretion fraction (Fe0-t) is helpful to compare the renal clearance (CLr) with total clearance (CLtotal) and determine the contribution of renal clearance in the drug elimination. It was calculated by the equation Fe0-t = CLr/CLtotal. The CL/F values were obtained from the two Phase I studies after the oral administration. Since the pharmacokinetics of golidocitinib after intravenous injection was not studied, the bioavailability value (F) was calculated by physiologically based pharmacokinetic (PBPK) model that incorporated compound specific information and independent prior knowledge on the physiology and biology at the organism."}, "[2]": {"assay": "JACKPOT3 SAD urinary PK (100 mg)", "assay_type": "in vivo, human", "details": "single dose 100 mg", "experimental": "After single oral administration, serial blood samples were obtained on Day 1 at pre-dose, and at 0.5, 1, 1.5, 2, 3, 4, 6, 8, 12, 24 (Day 2), 48 (Day 3), 72 (Day 4), 120 (Day 6), 168 (Day 8) and 216 (Day 10) hours post-dose for plasma PK analysis. Urine samples were collected during the collection intervals of 0-4, 4-10, 10-24, 24-48, 48-72, 72-96, 96-120, 120-144, and 144-168 hours following a single oral dose of 100 mg for urine PK analysis. Validated LC/MS methods were used for the determination of golidocitinib in human plasma and urine by Frontage Laboratories Inc. (Shanghai). This method was cross validated by Frontage Laboratories Inc. (New Jersey, USA) and met the acceptance criteria.\nas §1"}, "[3]": {"assay": "Safety (TEAEs), JACKPOT2 food effect cohort", "assay_type": "in vivo, human", "text": "Safety assessments included monitoring of adverse events/serious adverse events, clinical safety laboratory tests (clinical chemistry, hematology, coagulation, and urinalysis tests), 12-lead ECG, vital signs (blood pressure, pulse rate, and respiratory rate), and pulmonary function. All adverse events were coded using the Medical Dictionary for Regulatory Activities (MedDRA), version 22.0. The CTCAE 5.0 was used to define the intensity of AEs."}, "[4]": {"assay": "Clearance pathways (available data)", "assay_type": "in vivo, human"}, "[5]": {"parameters": "method as in JACKPOT5, NCT04225208", "details": "concluded from metabolic profile in human, radiolabeled mass balance study in 8 healthy participants ref JACKPOT5, NCT04225208; cited from earlier work"}},
  "data": [
    {"smiles": "COc1nn(C)cc1Nc1nccc(-c2c[nH]c3c(NC(=O)[C@@H](C)N4CCN(C)CC4)cccc23)n1", "note": "[golidocitinib, (2R)-N-[3-[2-[(3-Methoxy-1-methyl-pyrazol-4-yl)amino]pyrimidin-4-yl]-1H-indol-7-yl]-2-(4-methylpiperazin-1-yl)propenamide]", "values": [
      {"measurement": "CLtotal", "setting": "[1]; 25 mg once daily 14 days", "value": 15.2, "unit": "L/h"},
      {"measurement": "Fe0-t", "setting": "[1]; 25 mg once daily 14 days", "value": 20.9, "unit": "%"},
      {"measurement": "Ae0-t", "setting": "[1]; 25 mg once daily 14 days, mean (SD)", "value": "4.94 (1.23) mg"},
      {"measurement": "CLtotal", "setting": "[1]; 50 mg once daily 14 days", "value": 15.5, "unit": "L/h"},
      {"measurement": "Fe0-t", "setting": "[1]; 50 mg once daily 14 days", "value": 23.9, "unit": "%"},
      {"measurement": "Ae0-t", "setting": "[1]; 50 mg once daily 14 days, mean (SD)", "value": "11.7 (1.69) mg"},
      {"measurement": "CLtotal", "setting": "[1]; 100 mg once daily 14 days", "value": 13.4, "unit": "L/h"},
      {"measurement": "Fe0-t", "setting": "[1]; 100 mg once daily 14 days", "value": 20.2, "unit": "%"},
      {"measurement": "Ae0-t", "setting": "[1]; 100 mg once daily 14 days, mean (SD)", "value": "19.2 (4.11) mg"},
      {"measurement": "CL renal", "setting": "[1]; urine and plasma, 25 mg once daily 14 days, Ae0-t/AUC0-t, mean (SD), read-out: CLr (converted)", "value": 53, "unit": "mL/min"},
      {"measurement": "CL renal", "setting": "[1]; urine and plasma, 50 mg once daily 14 days, Ae0-t/AUC0-t, mean (SD), read-out: CLr (converted)", "value": 61.5, "unit": "mL/min"},
      {"measurement": "CL renal", "setting": "[1]; urine and plasma, 100 mg once daily 14 days, Ae0-t/AUC0-t, mean (SD), read-out: CLr (converted)", "value": 45.2, "unit": "mL/min"},
      {"measurement": "CL renal", "setting": "[1]; urine, US participants, 25 mg to 100 mg, read-out: mean renal clearance", "value": "45.2 to 61.5", "unit": "mL/min"},
      {"measurement": "CL renal", "setting": "[2]; human, urine and plasma, oral, Ae0-t/AUC0-t, mean (SD)", "value": 67.8, "unit": "mL/min"},
      {"measurement": "CLtotal", "setting": "[2]; CL/F * F (0.7 from PBPK model)", "value": 15.0, "unit": "L/h"},
      {"measurement": "Fe0-t", "setting": "[2]; CLr/CLtotal", "value": 27.2, "unit": "%"},
      {"measurement": "Ae0-t", "setting": "[2]; urine 0-168 hour, mean (SD)", "value": "19.5 (6.22) mg"},
      {"measurement": "Alanine Aminotransferase Increased", "setting": "[3]; 50 mg (Fasted), n = 12", "value": "1 (8.3%) n (%)"},
      {"measurement": "Anemia", "setting": "[3]; 50 mg (Fasted), n = 12", "value": "0 n (%)"},
      {"measurement": "Aspartate Aminotransferase Increased", "setting": "[3]; 50 mg (Fasted), n = 12", "value": "0 n (%)"},
      {"measurement": "Blood Lactate Dehydrogenase Increased", "setting": "[3]; 50 mg (Fasted), n = 12", "value": "0 n (%)"},
      {"measurement": "Blood and Lymphatic System Disorders", "setting": "[3]; 50 mg (Fasted), n = 12", "value": "0 n (%)"},
      {"measurement": "Cardiac Disorders", "setting": "[3]; 50 mg (Fasted), n = 12", "value": "1 (8.3%) n (%)"},
      {"measurement": "Cough", "setting": "[3]; 50 mg (Fasted), n = 12", "value": "0 n (%)"},
      {"measurement": "Extrasystoles", "setting": "[3]; 50 mg (Fasted), n = 12", "value": "1 (8.3%) n (%)"},
      {"measurement": "Headache", "setting": "[3]; 50 mg (Fasted), n = 12", "value": "0 n (%)"},
      {"measurement": "Investigations", "setting": "[3]; 50 mg (Fasted), n = 12", "value": "2 (16.7%) n (%)"},
      {"measurement": "Lipase Increased", "setting": "[3]; 50 mg (Fasted), n = 12", "value": "1 (8.3%) n (%)"},
      {"measurement": "Nervous System Disorders", "setting": "[3]; 50 mg (Fasted), n = 12", "value": "0 n (%)"},
      {"measurement": "Respiratory, Thoracic and Mediastinal Disorders", "setting": "[3]; 50 mg (Fasted), n = 12", "value": "0 n (%)"},
      {"measurement": "Rhinorrhea", "setting": "[3]; 50 mg (Fasted), n = 12", "value": "0 n (%)"},
      {"measurement": "Subjects with at least one TEAE", "setting": "[3]; 50 mg (Fasted), n = 12", "value": "3 (25.0%) n (%)"},
      {"measurement": "Alanine Aminotransferase Increased", "setting": "[3]; 50 mg (Fed), n = 11", "value": "3 (27.3%) n (%)"},
      {"measurement": "Anemia", "setting": "[3]; 50 mg (Fed), n = 11", "value": "1 (9.1%) n (%)"},
      {"measurement": "Aspartate Aminotransferase Increased", "setting": "[3]; 50 mg (Fed), n = 11", "value": "2 (18.2%) n (%)"},
      {"measurement": "Blood Lactate Dehydrogenase Increased", "setting": "[3]; 50 mg (Fed), n = 11", "value": "1 (9.1%) n (%)"},
      {"measurement": "Blood and Lymphatic System Disorders", "setting": "[3]; 50 mg (Fed), n = 11", "value": "1 (9.1%) n (%)"},
      {"measurement": "Cardiac Disorders", "setting": "[3]; 50 mg (Fed), n = 11", "value": "0 n (%)"},
      {"measurement": "Cough", "setting": "[3]; 50 mg (Fed), n = 11", "value": "1 (9.1%) n (%)"},
      {"measurement": "Extrasystoles", "setting": "[3]; 50 mg (Fed), n = 11", "value": "0 n (%)"},
      {"measurement": "Headache", "setting": "[3]; 50 mg (Fed), n = 11", "value": "1 (9.1%) n (%)"},
      {"measurement": "Investigations", "setting": "[3]; 50 mg (Fed), n = 11", "value": "4 (36.4%) n (%)"},
      {"measurement": "Lipase Increased", "setting": "[3]; 50 mg (Fed), n = 11", "value": "1 (9.1%) n (%)"},
      {"measurement": "Nervous System Disorders", "setting": "[3]; 50 mg (Fed), n = 11", "value": "1 (9.1%) n (%)"},
      {"measurement": "Respiratory, Thoracic and Mediastinal Disorders", "setting": "[3]; 50 mg (Fed), n = 11", "value": "2 (18.2%) n (%)"},
      {"measurement": "Rhinorrhea", "setting": "[3]; 50 mg (Fed), n = 11", "value": "2 (18.2%) n (%)"},
      {"measurement": "Subjects with at least one TEAE", "setting": "[3]; 50 mg (Fed), n = 11", "value": "7 (63.6%) n (%)"},
      {"measurement": "discontinuation due to AE", "setting": "[3]; 50 mg, fasted state, AE mild, resolved within 2 hours without treatment", "value": "one subject was discontinued due to an AE of trigeminy"},
      {"measurement": "hepatic clearance, share of clearance", "setting": "[4]", "value": "70-80%"},
      {"measurement": "renal excretion, share of clearance", "setting": "[4]", "value": "20-30%"},
      {"measurement": "oral bioavailability", "setting": "[5]", "value": "> 80", "unit": "%"}
    ]}
  ]
}
